Results taken from patent US20230174933A1, “METHODS OF MAKING CHIMERIC ANTIGEN RECEPTOR-EXPRESSING CELLS” (Novartis AG, priority 2020, published 2023).

How the values were obtained:
BCMA-CAR = assay: ARM-BCMA CAR expression kinetics in vitro with or without AZT (FACS); assay type: cell-based; conditions: AZT 30 μM and 100 μM
Method: In contrast to TM which measures lentiviral integration of the CAR transgene after 8-9 days, in the ARM process, the lentiviral transgene may not be fully integrated and truly expressed within 24 h post lentiviral addition, as lentiviral pseudotransduction could occur (Haas D L, et al., (2000) Mol Ther; 2(1):71-80; Galla M, et al., (2004) Mol Cell; 16(2):309-15). […] Flow cytometry (FACS) analyses were performed to detect CAR surface expression at 24 h, 48 h, 72 h, 96 h and 168 h post T cell activation and transduction with the lentiviral vector. In some cases, ARM-BCMA CAR and an aliquot of this product were frozen down immediately upon harvest for additional characterization in other assays.

[1] = test system: T cells activated with αCD3αCD28 beads; assay: Fold expansion, cell size and viability of cytokine treated T cells after TCR engagement; assay type: cell-based; conditions: T cells activated with αCD3αCD28 beads at day 0 in the presence of cytokine
Description: FIG. 12: Fold expansion of cytokine treated T cells after TCR engagement. T cells were activated with αCD3αCD28 beads at day 0 in the presence of indicated cytokines and then monitored for cell numbers at indicated time points.
T cells were activated with αCD3αCD28 beads at day 0 in the presence of indicated cytokines and then monitored for cell size (FIG. 13A) and viability (FIG. 13B) at indicated time points.

T cells = assay: T cell expansion with cytokines after αCD3/αCD28 bead stimulation; assay type: cell-based
Method: Previously frozen T cells were thawed and contacted with αCD3/αCD28 dynal beads (cell to bead ratio of 1 to 3) in the presence of indicated cytokines at day 0. From day 3, twice more T cell growth media (RPMI1640, 10% FBS, 2 mM L-glutamin, 100 μM non-essential amino acids, 1 mM sodium pyruvate, 10 mM Hepes, 55 μM β-mercaptoethanol, 10% FBS, and 100 U/ml of penicillin-streptomycin) was added to the plate with indicated cytokines (without cytokine, rhIL2 (50 IU/ml, Novartis), IL6 (long/ml, R&D systems), IL7 (long/ml, Peprotech), IL15 (long/ml, Peprotech), and IL21 (long/ml, Peprotech)) at day 3, 5, 6, 9, 12, 15, and 18.
Cells were harvested at indicated time points and then stained with live/dead dye (eFluro780, eBioscience), CD3 (BioLegend, clone#: OKT3), CD4 (BioLegend, clone#: OKT4), CD8 (BD Bioscience, clone#: RPA-T8), CD45RO (BioLegend, clone#: UCHL1), CCR7 (BioLegend, clone#: G043H7), CD27 (BD Horizon, clone#: L128), CD127 (BioLegend, clone#: A019D5), CD57 (BioLegend, clone#: HCD57), CD126 (BioLegend, clon#: UV4), and CD130 (R&D Systems, clone#: 28126) antibodies. The cells were acquired by FACS Fortessa and then FlowJo program was used for data analysis.

[2] = target: T1, BCMA (TNFRSF17) of the commercial human plasma membrane protein array (human, UniProt Q02223 1-184, limits assumed); assay: commercial human plasma membrane protein array
T1 sequence (looked up): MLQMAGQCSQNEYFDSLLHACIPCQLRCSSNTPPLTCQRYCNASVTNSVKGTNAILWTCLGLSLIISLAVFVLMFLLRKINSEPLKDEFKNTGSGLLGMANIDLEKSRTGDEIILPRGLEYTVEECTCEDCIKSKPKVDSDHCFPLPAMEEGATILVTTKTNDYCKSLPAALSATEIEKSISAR

For `Cc1cn([C@H]2C[C@H](N=[N+]=[N-])[C@@H](CO)O2)c(=O)[nH]c1=O` [AZT, 3′-azido-3′-deoxythymidine], the “inhibition of CAR expression” value (BCMA-CAR) was “effectively inhibit CAR expression”.

IL15: cytokine was tested, and the cell size [1] was “did not affect”, the viability [1] was “did not affect” and the “expansion of IL6Rβ expressing cells” value (T cells) was “enhanced expansion of IL6Rβ expressing cells”. For the same molecule, the T cell expansion (T cells; αCD3/αCD28 bead stimulated T cells plus cytokine) was “showing the greatest enhancement”.

B1: anti-human BCMA single chain antibody variable fragment (scFv) (PI61) (scFv)
scFv: QVQLQESGGGVVQPGRSLRLSCAASGFTFSSYGMHWVRQAPGKGLEWVAVISYDGSNKYYADSVKGRFTISRDNSKNTLYLQMNSLRAEDTAVYYCGGSGYALHDDYYGLDVWGQGTLVTVSSGGGGSGGGGSGGGGSQSALTQPASVSGSPGQSITISCTGTSSDVGGYNYVSWYQQHPGKAPKLMIYDVSNRPSGVSNRFSGSKSGNTASLTISGLQAEDEADYYCSSYTSSSTLYVFGSGTKVTVL
notes: also called PI61 scFv
B1: binds [2].
